{"source": "patent US9770439B2", "about": "“Hepatitis C virus inhibitors” (priority 2013, dated 2017)", "key": {"[1]": {"tested_on": "HCV replicon, genotype-1a variant with glutamine 30 changed to glutamate in the NS5A protein", "assay_type": "cell-based", "description": "The NS5A synergistic inhibitory effect of test compounds can be determined using various amounts of an NS5A-targeting compound with titration of a second compound of interest. […] In one embodiment, the HCV genotype strain can be genotype 1a containing a change at amino acid 30 of the NS5A protein consisting of glutamine to glutamate. The test compound can be chosen from compounds listed above or from others present in the literature."}, "[2]": {"tested_on": "HCV replicon, genotype 1a L31V variant with leucine 31 changed to valine in the NS5A protein", "assay_type": "cell-based", "conditions": "BMS-790052 titrated with N47 fixed at 200 nM, genotype 1a L31V"}, "[3]": {"tested_on": "HCV replicon, genotype-1a variant with glutamine 30 changed to glutamate in the NS5A protein", "conditions": "cited from earlier work; for EC50: genotype 1a Q30E replicon"}, "[4]": {"tested_on": "HCV replicon, genotype 1a Y93H variant with tyrosine 93 changed to histidine in the NS5A protein", "assay_type": "cell-based", "conditions": "BMS-790052 titrated with N47 fixed at 200 nM, genotype 1a Y93H", "experimental": "Combinations can be examined for synergistic activity using a variety of putative NS5A-targeting compounds and a variety of test compounds. […] The test compound can be chosen from compounds exemplified below, which were prepared by methods known in the art, or from others disclosed in the literature.\nSimilarly, BMS-790052 can be tested singly and in combination with a fixed amount of compound N47 in the HCV replicon cell based assay consisting of the genotype 1a Y93H variant with tyrosine 93 changed to histidine in the NS5A protein."}, "[5]": {"conditions": "ranking of synergist activity, test compound titrated with BMS-790052 fixed at 200 nM, genotype 1a Q30E replicon"}, "[6]": {"conditions": "compound alone, read-out: EC50, titrated singly"}}, "note": "Like-named read-outs stand apart in the source and are kept apart here."}
{"molecule": "COC(C)(CCO)C(=O)N[C@H](c1nc(-c2ccc(-c3ccc(-c4c[nH]c([C@@H](NC(=O)C(C)(CCO)OC)C(C)(C)C)n4)cc3)cc2)c[nH]1)C(C)(C)C", "note": "(single isomer, unassigned) [Compound W-258]", "values": [{"measurement": "Fold-Synergistic 1a (Q30E)", "setting": "[1]", "result": ">100"}]}
{"molecule": "CC(C)(C)C(=O)N[C@H](c1ncc(-c2ccc(-c3ccc(-c4cnc([C@@H](NC(=O)C(C)(C)C)C(C)(C)CF)[nH]4)cc3)cc2)[nH]1)C(C)(C)CF", "note": "[Compound Y-68]", "values": [{"measurement": "Fold-Synergistic 1a (Q30E)", "setting": "[1]; [5]", "result": ">100"}]}
{"molecule": "COC(C)(CCO)C(=O)N[C@H](c1nc(-c2ccc(-c3ccc(-c4cnc([C@@H](NC(=O)C(C)(CCO)OC)C(C)(C)C)[nH]4)cc3)cc2)c[nH]1)C(C)(C)C", "note": "(single isomer, unassigned) [Compound W-259]", "values": [{"measurement": "Fold-Synergistic 1a (Q30E)", "setting": "[1]", "result": ">100"}]}
{"molecule": "COC(=O)N[C@H](C(=O)N1CCC[C@H]1c1ncc(-c2ccc(-c3ccc(-c4cnc([C@@H]5CCCN5C(=O)[C@@H](NC(=O)OC)C(C)C)[nH]4)cc3)cc2)[nH]1)C(C)C", "note": "[BMS-790052, reference compound]", "values": [{"measurement": "synergistic inhibitory effect with the combination (fold)", "setting": "[2]", "result": "> 100", "unit": "fold"}, {"measurement": "reciprocal synergistic inhibitory effect for the combination (fold)", "setting": "[3]; BMS-790052 titrated with P-55 fixed at 200 nM, genotype 1a Q30E", "result": "~100", "unit": "fold"}, {"measurement": "EC50", "setting": "[3]; P-55 fixed at 200 nM, read-out: EC50 of BMS-790052 in the presence of a fixed amount of P-55", "result": "~2", "unit": "nM"}, {"measurement": "EC50", "setting": "[3]; [6]", "result": "~200", "unit": "nM"}, {"measurement": "synergistic inhibitory effect for the combination (fold)", "setting": "[4]", "result": "> 100", "unit": "fold"}]}
{"molecule": "COc1ccccc1C(O)C1(C(=O)N[C@H](c2nc(-c3ccc(-c4ccc(-c5c[nH]c([C@@H](NC(=O)C6(C(O)c7ccccc7OC)CC6)C(C)(C)C)n5)cc4)cc3)c[nH]2)C(C)(C)C)CC1", "note": "(single isomer, unassigned) [Compound N-135B]", "values": [{"measurement": "Fold-Synergistic 1a (Q30E)", "setting": "[1]", "result": ">100"}]}
{"molecule": "CC1([C@H](NC(=O)C2CCC(F)(F)CC2)c2cc3ccc(C#Cc4ccc5nc([C@@H](NC(=O)C6CCC(F)(F)CC6)C6(C)CC6)[nH]c5c4)cc3[nH]2)CC1", "note": "[Compound B67]", "values": [{"measurement": "Fold-Synergistic 1a (Q30E)", "setting": "[1]", "result": ">100"}]}
{"molecule": "CC1([C@H](NC(=O)[C@]2(C)CCCC[C@@H]2O)c2ncc(-c3ccc(-c4ccc(-c5cnc([C@@H](NC(=O)[C@]6(C)CCCC[C@@H]6O)C6(C)CC6)[nH]5)cc4)cc3)[nH]2)CC1", "note": "[Compound Y-116]", "values": [{"measurement": "Fold-Synergistic 1a (Q30E)", "setting": "[1]", "result": ">100"}]}
{"molecule": "CC(C)(C)C(=O)NC(c1ncc(-c2ccc(-c3ccc(-c4cnc([C@@H](NC(=O)C(C)(C)C)C5(C)CCC5)[nH]4)cc3)cc2)[nH]1)C1(C)CCC1", "note": "(stereo partly drawn) [Compound Y-39]", "values": [{"measurement": "Fold-Synergistic 1a (Q30E)", "setting": "[1]", "result": ">100"}]}
{"molecule": "COc1ccccc1C(O)C1(C(=O)N[C@H](c2nc(-c3ccc(-c4ccc(-c5c[nH]c([C@@H](NC(=O)C6(C(O)c7ccccc7OC)CC6)C(C)(C)C)n5)cc4)cc3)c[nH]2)C(C)(C)C)CC1", "note": "(single isomer, unassigned) [Compound N-135A]", "values": [{"measurement": "Fold-Synergistic 1a (Q30E)", "setting": "[1]", "result": ">100"}]}
{"molecule": "COc1ccccc1C(O)C1(C(=O)N[C@H](c2nc(-c3ccc(-c4ccc(-c5c[nH]c([C@@H](NC(=O)C6(C(O)c7ccccc7OC)CC6)C(C)(C)C)n5)cc4)cc3)c[nH]2)C(C)(C)C)CC1", "note": "(single isomer, unassigned) [Compound N-135C]", "values": [{"measurement": "Fold-Synergistic 1a (Q30E)", "setting": "[1]", "result": ">100"}]}
{"molecule": "COC(c1ccccc1)C1(C(=O)N[C@H](c2nc(-c3ccc(-c4ccc(-c5c[nH]c([C@@H](NC(=O)C6(C(OC)c7ccccc7)CC6)C(C)(C)C)n5)cc4)cc3)c[nH]2)C(C)(C)C)CC1", "note": "(stereo partly drawn) [Example N-137]", "values": [{"measurement": "Fold-Synergistic 1a (Q30E)", "setting": "[1]; [5]", "result": "<10"}]}
{"molecule": "CC(C)CC(=O)N[C@H](c1ncc(-c2ccc(-c3ccc(-c4cnc([C@@H](NC(=O)CC(C)C)C(C)C)[nH]4)cc3)cc2)[nH]1)C(C)C", "note": "[Compound P-55]", "values": [{"measurement": "synergistic inhibitory effect with the combination (fold)", "setting": "[3]; P-55 titrated with BMS-790052 fixed at 200 nM, genotype 1a Q30E", "result": "> 100", "unit": "fold"}, {"measurement": "EC50", "setting": "[3]; BMS-790052 fixed at 200 nM, read-out: EC50 of P-55 in the presence of a fixed amount of BMS-790052", "result": "~2", "unit": "nM"}, {"measurement": "EC50", "setting": "[3]; [6]", "result": "> 200", "unit": "nM"}]}
